Tests used:
c-Kit = c-Kit (Homo sapiens, UniProt P10721); assay: c-Kit biochemical assay (per US 2007/0032519)
Procedure, shortened: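 Biochemical kinase inhibition run per US 2007/0032519; values reported as binned IC50 ranges (0.0001–1 μM, 1–10 μM, 10–200 μM).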

[1] = target: T1, BA/F3-FLT3-ITD + F691L cells (Homo sapiens, UniProt P36888, F691L, cells depend on it, form not given); assay: BA/F3-FLT3-ITD + F691L cell proliferation assay (CellTiter-Glo); format: cell-based, murine; conditions: BaF3 FLT3 ITD/F691L cells; read-out: Cell Activity (IC50 μM) BaF3_FLT3_ITD/F691L
T1 sequence (P36888 1-993 F691L): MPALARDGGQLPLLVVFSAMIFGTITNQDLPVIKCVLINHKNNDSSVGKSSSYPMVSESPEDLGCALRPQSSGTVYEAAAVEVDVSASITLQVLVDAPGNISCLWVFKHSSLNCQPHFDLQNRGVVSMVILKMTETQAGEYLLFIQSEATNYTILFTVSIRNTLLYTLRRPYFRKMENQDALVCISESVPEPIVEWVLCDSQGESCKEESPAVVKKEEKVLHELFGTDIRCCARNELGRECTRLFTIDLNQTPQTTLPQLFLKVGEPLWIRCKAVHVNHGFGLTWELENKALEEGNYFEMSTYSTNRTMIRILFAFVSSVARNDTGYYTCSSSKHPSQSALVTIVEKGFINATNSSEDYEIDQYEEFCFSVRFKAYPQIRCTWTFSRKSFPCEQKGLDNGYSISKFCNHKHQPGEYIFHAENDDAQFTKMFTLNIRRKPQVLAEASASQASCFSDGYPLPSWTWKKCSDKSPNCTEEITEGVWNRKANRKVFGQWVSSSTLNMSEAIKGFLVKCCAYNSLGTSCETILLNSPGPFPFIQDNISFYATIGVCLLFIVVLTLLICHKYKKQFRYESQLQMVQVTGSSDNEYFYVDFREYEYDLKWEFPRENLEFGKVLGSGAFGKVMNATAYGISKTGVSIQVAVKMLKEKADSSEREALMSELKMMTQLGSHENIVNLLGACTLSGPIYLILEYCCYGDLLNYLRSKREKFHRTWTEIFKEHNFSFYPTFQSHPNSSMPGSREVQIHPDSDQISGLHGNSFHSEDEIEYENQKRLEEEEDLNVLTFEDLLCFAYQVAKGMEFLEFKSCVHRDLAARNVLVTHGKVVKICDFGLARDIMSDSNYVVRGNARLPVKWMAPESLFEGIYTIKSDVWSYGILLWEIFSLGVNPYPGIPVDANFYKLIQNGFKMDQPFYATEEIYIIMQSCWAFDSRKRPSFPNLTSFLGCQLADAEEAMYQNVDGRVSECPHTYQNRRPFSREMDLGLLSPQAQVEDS
Procedure, shortened: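 Murine BA/F3 cells transfected with full-length FLT3 carrying ITD plus D835Y or F691L, grown without IL-3 so growth depends on FLT3. Seeded at 1×10^4 cells/well and dosed with 8 points, 10 to 0.0046 μM, 0.2% DMSO, for three days at 37 °C. IC50 from CellTiter-Glo luminescence (ATP content).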

Chain of c-Kit (P10721 26-976): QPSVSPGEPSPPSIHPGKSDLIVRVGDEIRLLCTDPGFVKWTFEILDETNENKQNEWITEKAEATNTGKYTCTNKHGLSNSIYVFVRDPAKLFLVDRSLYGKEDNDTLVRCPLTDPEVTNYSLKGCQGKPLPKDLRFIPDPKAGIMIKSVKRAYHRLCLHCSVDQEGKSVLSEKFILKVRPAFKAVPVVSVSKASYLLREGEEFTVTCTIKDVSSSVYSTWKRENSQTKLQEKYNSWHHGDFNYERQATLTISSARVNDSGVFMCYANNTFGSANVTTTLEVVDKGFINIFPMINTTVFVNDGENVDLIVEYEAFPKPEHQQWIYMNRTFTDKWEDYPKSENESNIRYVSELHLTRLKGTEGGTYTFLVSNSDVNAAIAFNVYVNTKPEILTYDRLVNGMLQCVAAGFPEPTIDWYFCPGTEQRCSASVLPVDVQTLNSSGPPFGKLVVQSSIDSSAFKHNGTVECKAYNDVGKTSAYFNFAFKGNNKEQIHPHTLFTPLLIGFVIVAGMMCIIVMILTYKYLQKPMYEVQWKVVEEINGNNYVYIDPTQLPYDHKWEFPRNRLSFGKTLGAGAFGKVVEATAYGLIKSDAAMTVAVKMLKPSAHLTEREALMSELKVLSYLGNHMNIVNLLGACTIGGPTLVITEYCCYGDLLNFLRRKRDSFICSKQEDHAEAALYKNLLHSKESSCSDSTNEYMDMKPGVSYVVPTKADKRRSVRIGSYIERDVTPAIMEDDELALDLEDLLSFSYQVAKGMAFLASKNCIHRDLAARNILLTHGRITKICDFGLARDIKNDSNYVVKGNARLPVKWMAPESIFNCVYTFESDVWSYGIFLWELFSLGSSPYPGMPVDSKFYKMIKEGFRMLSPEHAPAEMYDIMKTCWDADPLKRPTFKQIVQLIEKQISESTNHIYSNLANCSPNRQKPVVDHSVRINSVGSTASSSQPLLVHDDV

| SMILES | IC50 (c-Kit) | GI50 [1] |
| --- | --- | --- |
| Cc1ccc(-c2cnc3[nH]cc(-c4ccc5ncn(C(C)(C)C)c5c4)c3n2)cn1 [P-388, 7-(3-tert-butylbenzimidazol-5-yl)-2-(6-methyl-3-pyridyl)-5H-pyrrolo[2,3-b]pyrazine] | 0.0001 to 1 µM | 0.0001 to 1 µM |
| COc1cnc2[nH]cc(-c3ccc4ncn(C(C)(C)C)c4c3)c2c1 [P-074, 1-tert-butyl-6-(5-methoxy-1H-pyrrolo[2,3-b]pyridin-3-yl)benzimidazole] | 1 to 10 µM | 0.0001 to 1 µM |
| CC(C)(C)n1cnc2ccc(-c3c[nH]c4ncc(-c5cnc(F)c(F)c5)nc34)cc21 [P-390, 7-(3-tert-butylbenzimidazol-5-yl)-2-(5,6-difluoro-3-pyridyl)-5H-pyrrolo[2,3-b]pyrazine] | 10 to 200 µM | 0.0001 to 1 µM |
| COc1cnc2[nH]cc(-c3ccc4ncn(-c5ccccc5)c4c3)c2c1 [P-068, 5-methoxy-3-(3-phenylbenzimidazol-5-yl)-1H-pyrrolo[2,3-b]pyridine] | 10 to 200 µM | 0.0001 to 1 µM |
| CC(C)(C)n1cnc2ccc(-c3c[nH]c4ncc(-c5ccnc(C#N)c5)nc34)cc21 [P-301, 4-[7-(3-tert-butylbenzimidazol-5-yl)-5H-pyrrolo[2,3-b]pyrazin-2-yl]pyridine-2-carbonitrile] | 10 to 200 µM | 0.0001 to 1 µM |
| COc1cnc2[nH]cc(-c3ccc4ncn(C5CCC5)c4c3)c2c1 [P-061, 1-cyclobutyl-6-(5-methoxy-1H-pyrrolo[2,3-b]pyridin-3-yl)benzimidazole] | 1 to 10 µM | 0.0001 to 1 µM |
| CC(C)(C)n1cnc2ccc(-c3c[nH]c4ncc(-c5cnc(O)nc5)nc34)cc21 [P-363, 5-[7-(3-tert-butylbenzimidazol-5-yl)-5H-pyrrolo[2,3-b]pyrazin-2-yl]pyrimidin-2-ol] | 1 to 10 µM | 0.0001 to 1 µM |
| COc1ncc(-c2cnc3[nH]cc(-c4ccc5ncn(C(C)(C)C)c5c4)c3n2)cc1C#N [P-405, 5-[7-(3-tert-butylbenzimidazol-5-yl)-5H-pyrrolo[2,3-b]pyrazin-2-yl]-2-methoxy-pyridine-3-carbonitrile] | 10 to 200 µM | 0.0001 to 1 µM |
| CC(C)(O)c1ncc(-c2cnc3[nH]cc(-c4ccc5ncn(C(C)(C)C)c5c4)c3n2)cn1 [P-380, 2-[5-[7-(3-tert-butylbenzimidazol-5-yl)-5H-pyrrolo[2,3-b]pyrazin-2-yl]pyrimidin-2-yl]propan-2-ol] | 1 to 10 µM | 0.0001 to 1 µM |
